Test results taken from patent US8597646B2, “Methods and compositons featuring TGF-beta antagonists for the treatment of marfan syndrome and associated disorders” (The Johns Hopkins University, priority 2005, dated 2013).
Entries after “also recorded” stand apart in the source; their conditions may differ.

What was measured:
C1039G/+ mice = test: Aortic wall histology (elastic matrix architecture) in treated C1039G/+ mice; format: in vivo, mouse; conditions: 4 months of treatment
[1] = tested on: young patients with an aggressive rate of aortic growth; test: Losartan in young patients with aggressive rate of aortic growth despite standard therapy; format: in vivo, human; conditions: n=8, despite β-adrenergic/ACE blockade, monopotassium salt
Method: Markers of TGFβ antagonism have included reduced plasma levels of free TGFβ, reduced intracellular initiation of the TGFβ signaling cascade, and reduced tissue expression of TGFβ-responsive genes. […] Three independent measurements of the aortic root were made from the long axis echo view in systole at each of 3 time points (baseline, 2 and 4 months of treatment; FIG. 8A). All analyses were performed blinded to genotype and treatment arm. […] This represents the first therapeutic strategy for MFS that derives from interrogation of disease pathogenesis and the first possibility for primary prevention of disease manifestations.

[2] = tested on: TGFβ signaling (pSmad2/3, periostin); test: Immunofluorescence of TGFβ signaling markers (pSmad2/3, periostin, TSP1) in skeletal muscle of fibrillin-1 deficient mice; format: in vivo, mouse
Method: Immunofluorescent studies were performed as previously described (Cohn, R. D. et al. (2002) Cell 110, 639-48). […] The following antibodies were used in this study: goat polyclonal anti-pSmad 2/3, rabbit polyclonal anti c-met and rabbit polyclonal anti-myogenin (all from Santa Cruz Biotechnology Inc.); rabbit polyclonal anti-pSmad2 (#3104, Cell Signal) rat polyclonal anti-lamininyl, rabbit polyclonal anti-dystrophin, rabbit polyclonal antithrombospondin-1 and rabbit polyclonal anti-periostin (all from Abcam); rabbit polyclonal anti-fibrillin-1 (pAb 9543) (Judge, D. P. et al. (2004) J Clin Invest 114, 172-81); goat polyclonal anti-vimentin (Sigma) and, mouse monoclonal anti-beta-sarcoglycan mouse monoclonal anti-developmental myosin (Novocastra). Anti a-dystroglycan antibody IIH6 was generously supplied by Dr. Kevin Campbell, Iowa. Secondary Alexa fluor donkey anti-rabbit, anti-rat, anti mouse IgM and IgG1 and anti-goat conjugated antibodies (Molecular probes) were applied for 1 hour at room temperature. Nuclei were stained with DAPI for 5 minutes, and inverted coverslips were mounted onto glass slides using Cytoseal (Vector Laboratories).
Skeletal muscle from Fbn1^C1039G/+ mice was assessed for increased TGFβ signaling by immunohistochemical staining for phosphorylated Smad2/3 (pSmad2/3). […]

Fbn1mgR/mgR mice = test: Forelimb grip strength and fatigue in Fbn1mgR/mgR mice; format: in vivo, mouse; conditions: 5 months of losartan, untreated 28±2.5, wild-type 3±0.8
Method: (§1) Mice were continued on oral therapy for 6 months and sacrificed. […] Age-matched wild-type and mdx mice (placebo-treated) served as a control group. After 6 months of treatment, forelimb and hindlimb grip strength was assessed using an automated grip strength meter (Columbus Instruments, Columbus, Ohio). The experiments for forelimb and hindlimb grip strength testing were conducted at different days allowing for a minimum recovery period of 10 days. Total peak force (in Newtons) was determined by an electronic strain gauge as previously described and corrected for body weight (Wagner, K. R., et al. (2002) Ann Neurol 52, 832-6). Five measurements within 2 minutes were taken from each animal. The three highest measurements for each animal were averaged to give the strength score. The degree of fatigue was calculated by comparing the first two pulls to the last two pulls with the decrement between pulls 1+2 and pulls 4+5 providing a measure of fatigue. Similarly, functional measurements were performed in 6 month old fibrillin-1 deficient mice (Fbn1^mgR) (Pereira, L. et al. (1997) Nat Genet. 17, 218-22) after 5 months of treatment.

mdx mice = test: Long-term losartan in mdx mice: fibrosis and centrally located nuclei in diaphragm and gastrocnemius; format: in vivo, mouse
Method: as §1
For morphometric analyses, skeletal muscle was flash frozen in cooled isopentane and mounted in Tragacanth (Sigma Aldrich, USA). Subsequently, 10 μm sections were stained with hematoxylin and eosin. Muscle fibers were counted in a defined area (9 mm^2) of the tibialis anterior muscle of 10-day-old wild-type (n=3) and Fbn1C1039G/C1039G mice (n=6) and fiber diameter was determined by measuring the shortest fiber axis within cross-sections of the tibialis anterior muscle, counting a total of 850-1500 fibers. The cross sectional area of undamaged and regenerating myofibers of the tibialis anterior muscle from wild-type and Fbn1^C1039G/+ mice was expressed as a distribution of the percentage of the total number of myofibers analyzed (850-1500) (Horsley, V. et al (2003) Cell 113, 483-94). Sections of skeletal muscle were taken along the same anatomical region of the mid-belly of the tibialis anterior muscle. The number of c-met, M-cadherin- and myogeninpositive cells in 50 fields of the tibialis anterior muscle mid-belly area was scored using the x40 objective. At least six animals per genotype were scored and all analyses were performed by investigators blinded to genotype and treatment group. All images were taken using an Eclipse E400 microscope (Nikon Inc.) and cross-sectional area measurements were determined using IPLAB software (Scanalytics, Fairfax, Va.). Neonatal myosin-positive fibers after cardiotoxin challenge were quantified by counting 900-1240 fibers per toxin-challenged muscle (n=4). For quantification of fibrotic tissue formation in toxin challenged mice (n=4), immunofluorescent staining for vimentin was performed. Five sections throughout the entire tibialis anterior muscle were analyzed at low magnification and vimentin positive areas were calculated as a percentage of the total muscle area using the NIH Scion image software, public domain. Similarly, van-Gieson and vimentin stained sections were used to delineate the percentage of fibrotic versus total muscle area in diaphragm and gastrocnemius of long-term losartan-treated, placebo-treated mdx and wild-type mice (n=6 each group) using the NIH Scion software. For evaluation of percent centrally located nuclei a total of 1100-1300 muscle fibers per diaphragm of each mouse (n=6, each group) and a total of 1900-2200 muscle fibers per gastrocnemius of each mouse (n=6, each group) were calculated.

For `CCCCc1nc(Cl)c(CO)n1Cc1ccc(-c2ccccc2-c2nnn[nH]2)cc1.[K]` [losartan, 2-butyl-4-chloro-1-[p-(o-1H-tetrazol-5-ylphenyl)benzyl]imidazole-5-methanol monopotassium salt], the “Elastic matrix architecture / histologic parameters of the aorta” value (C1039G/+ mice) was “normalized”, the “Response of aortic growth in patients” value ([1]; listed as Losartan) was “effective” and the “Response of aortic growth in patients” value [1] was “remarkable response”. The “Nuclear pSmad2/3 and sarcolemmal periostin in uninjured skeletal muscle” value ([2]; Fbn1C1039G/+ mice, steady state) was “abrogation of TGFβ signaling”, the “Expression of thrombospondin-1 (TSP1) and periostin in skeletal muscle” value ([2]; losartan-treated fibrillin-1 deficient mice) was “Decreased expression” and the Fatigue (Fbn1mgR/mgR mice) was 9%±1.8. The “Muscle fibers containing centrally located nuclei, diaphragm and gastrocnemius, in words” value (mdx mice; 6 months of losartan) was “increased percentage”, the “Centrally located nuclei, gastrocnemius” value (mdx mice; 6 months of losartan, mdx 25±5, wild-type 2±0.5) was 36%±+6 and the “Fibrotic area, diaphragm” value (mdx mice; 6 months of losartan, mdx 32±5, wild-type 4±1) was 18%±4. For the same compound, the “Percentage of centrally located nuclei, diaphragm” value (mdx mice; 6 months of losartan, mdx 35±5, wild-type 2±0.5) was 48%±6, the “Fibrosis, gastrocnemius” value (mdx mice; 6 months of losartan, mdx 75±6.4, wild-type 4±2) was 89%±5.8 and the “Myopathic disease progression / steady-state architecture in mdx mice” value (mdx mice; long-term losartan, 9 month-old mdx mice, monopotassium salt) was “significant attenuation of disease progression; also recorded: improved steady-state architecture; also recorded: attenuates myopathic disease progression”.
